According to patent US10874108B2, “Anti-microbial compositions” (5D HEALTH PROTECTION GROUP LTD, priority 2016, dated 2020):

How the values were obtained:
[1] = system: S. aureus ATCC 29213 biofilm; assay: MBEC model (ASTM E2799), liquid formulas; format: cell-based; settings: treated 24 hours
Experimental: (§1) The MBEC model (ASTM E2799) was used to assess the anti-biofilm efficacy of the liquid formulas. Biofilms were grown on polystyrene pegs in the MBEC model for either 24 or 48 hours before treatment. Using the liquid form of the EDTA complexes 24- and 48-hour biofilms were tested (Table 20).
(§2) 24- and 48-hour biofilms were formed using MBEC plate method and treated for 24 hours. Technical replicates n=3. Log reduction (LR) values show±standard error (SE) of LR value.

[2] = system: S. epidermidis ATCC 35984 biofilm; assay: MBEC model (ASTM E2799), liquid formulas; format: cell-based; settings: treated 24 hours
Experimental: as §1, §2

[3] = system: E. faecalis ATCC 29212 biofilm; assay: MBEC model (ASTM E2799), liquid formulas; format: cell-based; settings: treated 24 hours
Experimental: as §1, §2

[4] = system: P. aeruginosa NCTC 10662 biofilm; assay: MBEC model (ASTM E2799), liquid formulas; format: cell-based; settings: treated 24 hours
Experimental: as §1, §2

[5] = system: S. aureus MRSA BAA-43 biofilm; assay: MBEC model (ASTM E2799), liquid formulas; format: cell-based; settings: treated 24 hours
Experimental: as §1, §2

[6] = system: cells; assay: Direct cytotoxicity, Neutral Red Uptake assay
[7] = Cumulative elution from carbopol hydrogel; format: physicochemical
Experimental: Hydrogels were loaded with EDTA compounds and investigated for elution of the silver, zinc and EDTA. Carbopol ETD 2020 was obtained from Lubrizol Advanced Materials, Inc. USA. 1.2 g carbopol power was dissolved in 42.36 g deionized water for 1 hour to fully hydrate. Then 8.4 ml of the EDTA complexes and 4.8 g glycerine were added into carbopol solution with vigorous stirring; finally, 3 g 50% triethanolamine was dropped into the suspension to obtain final products: carbopol hydrogel with EDTA complexes.
The silver, zinc and EDTA increased in saline day by day, which indicated the release of silver, zinc and EDTA can be controlled from the hydrogel.

[8] = Elution from loaded gauze; format: physicochemical
Experimental: The gauzes were weighed before soaking, after soaking and after drying for 24 hours. To assess the elution profile of the EDTA complexes from gauze, the loaded gauzes were immersed in water and saline (Table 6 and Table 7). […] After day 2, the eluting of silver, zinc and EDTA decreased more than 5 times compared to day 1.

Question: Which results are given for Silver?
Answer: Kill % ([1]; 50 ppm, 24-Hour Biofilm): 100%; LR ([1]; 50 ppm, 24-Hour Biofilm): 6.44; Kill % ([1]; 50 ppm, 48-Hour Biofilm): 100%; LR ([1]; 50 ppm, 48-Hour Biofilm): 6.50; Kill % ([1]; 100 ppm, 24-Hour Biofilm): 100%; LR ([1]; 100 ppm, 24-Hour Biofilm): 6.44; Kill % ([1]; 100 ppm, 48-Hour Biofilm): 100%; LR ([1]; 100 ppm, 48-Hour Biofilm): 6.50; Kill % ([2]; 50 ppm, 24-Hour Biofilm): 100%; LR ([2]; 50 ppm, 24-Hour Biofilm): 6.09; Kill % ([2]; 50 ppm, 48-Hour Biofilm): 100%; LR ([2]; 50 ppm, 48-Hour Biofilm): 6.41; Kill % ([2]; 100 ppm, 24-Hour Biofilm): 100%; LR ([2]; 100 ppm, 24-Hour Biofilm): 6.09; Kill % ([2]; 100 ppm, 48-Hour Biofilm): 100%; LR ([2]; 100 ppm, 48-Hour Biofilm): 6.41; Kill % ([3]; 50 ppm, 24-Hour Biofilm): 100%; LR ([3]; 50 ppm, 24-Hour Biofilm): 6.35; Kill % ([3]; 50 ppm, 48-Hour Biofilm): 100%; LR ([3]; 50 ppm, 48-Hour Biofilm): 6.40; Kill % ([3]; 100 ppm, 24-Hour Biofilm): 100%; LR ([3]; 100 ppm, 24-Hour Biofilm): 6.35; Kill % ([3]; 100 ppm, 48-Hour Biofilm): 100%; LR ([3]; 100 ppm, 48-Hour Biofilm): 6.40; Kill % ([4]; 50 ppm, 24-Hour Biofilm): 100%; LR ([4]; 50 ppm, 24-Hour Biofilm): 7.44; Kill % ([4]; 50 ppm, 48-Hour Biofilm): 100%; LR ([4]; 50 ppm, 48-Hour Biofilm): 8.44; Kill % ([4]; 100 ppm, 24-Hour Biofilm): 100%; LR ([4]; 100 ppm, 24-Hour Biofilm): 7.44; Kill % ([4]; 100 ppm, 48-Hour Biofilm): 100%; LR ([4]; 100 ppm, 48-Hour Biofilm): 8.44; Kill % ([5]; 50 ppm, 24-Hour Biofilm): 100%; LR ([5]; 50 ppm, 24-Hour Biofilm): 5.40; Kill % ([5]; 50 ppm, 48-Hour Biofilm): 100%; LR ([5]; 50 ppm, 48-Hour Biofilm): 6.43; Kill % ([5]; 100 ppm, 24-Hour Biofilm): 100%; LR ([5]; 100 ppm, 24-Hour Biofilm): 5.40; Kill % ([5]; 100 ppm, 48-Hour Biofilm): 100%; LR ([5]; 100 ppm, 48-Hour Biofilm): 6.43

Question: With `CCCCCCCCCCCCOS(=O)(=O)[O-].[Na+]` [SDS, sodium dodecyl sulphate, reference compound] as the compound, how does the Interpretation ([6]; 0.05 mg/ml) read?
Answer: Cytotoxic (if the percentage viability is less than 70% of the untreated control, then the substance is considered cytotoxic)

Question: What about the “Percentage of Control/Percentage Viability (%)” value ([6]; 0.05 mg/ml) of the same compound?
Answer: 6.57 ± 0%

Question: What about the Interpretation ([6]; 0.1 mg/ml) of the same compound?
Answer: Cytotoxic (if the percentage viability is less than 70% of the untreated control, then the substance is considered cytotoxic)

Question: And the “Percentage of Control/Percentage Viability (%)” value ([6]; 0.1 mg/ml)?
Answer: 6.57 ± 0%

Question: What about the Interpretation ([6]; 0.15 mg/ml) of the same compound?
Answer: Cytotoxic (if the percentage viability is less than 70% of the untreated control, then the substance is considered cytotoxic)

Question: And the “Percentage of Control/Percentage Viability (%)” value ([6]; 0.15 mg/ml)?
Answer: 6.57 ± 0%

Question: And the Interpretation ([6]; 0.2 mg/ml)?
Answer: Cytotoxic (if the percentage viability is less than 70% of the untreated control, then the substance is considered cytotoxic)

Question: And the “Percentage of Control/Percentage Viability (%)” value ([6]; 0.2 mg/ml)?
Answer: 6.57 ± 0%

Question: Which results are given for `O=C([O-])CN(CCN(CC(=O)[O-])CC(=O)[O-])CC(=O)[O-].[Ag+].[Ag+].[Zn+2]` [EDTA compound 4, sample 2]?
Answer: Elution in saline (ppm) EDTA ([7]; day 1): 16.64 ± 1.41 ppm; Elution in saline (ppm) Silver ([7]; day 1): 21.10 ± 1.80 ppm; Elution in saline (ppm) Zinc ([7]; day 1): 15.30 ± 2.12 ppm; Elution in water (ppm) EDTA ([7]; day 1): 20.80 ± 3.07 ppm; Elution in water (ppm) Silver ([7]; day 1): 28.41 ± 3.48 ppm; Elution in water (ppm) Zinc ([7]; day 1): 20.77 ± 3.25 ppm; Elution in saline (ppm) EDTA ([7]; day 2): 17.31 ± 1.43 ppm; Elution in saline (ppm) Silver ([7]; day 2): 26.06 ± 2.03 ppm; Elution in saline (ppm) Zinc ([7]; day 2): 20.51 ± 3.94 ppm; Elution in water (ppm) EDTA ([7]; day 2): 22.50 ± 2.86 ppm; Elution in water (ppm) Silver ([7]; day 2): 29.03 ± 4.71 ppm; Elution in water (ppm) Zinc ([7]; day 2): 23.57 ± 2.12 ppm; Elution in saline (ppm) EDTA ([7]; day 3): 21.81 ± 0.42 ppm; Elution in saline (ppm) Silver ([7]; day 3): 31.27 ± 0.96 ppm; Elution in saline (ppm) Zinc ([7]; day 3): 23.98 ± 1.92 ppm; Elution in water (ppm) EDTA ([7]; day 3): 24.64 ± 1.57 ppm; Elution in water (ppm) Silver ([7]; day 3): 29.12 ± 2.73 ppm; Elution in water (ppm) Zinc ([7]; day 3): 22.53 ± 7.30 ppm; Elution in saline (ppm) EDTA ([7]; day 4): 22.70 ± 1.70 ppm; Elution in saline (ppm) Silver ([7]; day 4): 32.50 ± 0.96 ppm; Elution in saline (ppm) Zinc ([7]; day 4): 26.11 ± 1.08 ppm; Elution in water (ppm) EDTA ([7]; day 4): 24.30 ± 1.51 ppm; Elution in water (ppm) Silver ([7]; day 4): 29.89 ± 3.51 ppm; Elution in water (ppm) Zinc ([7]; day 4): 22.23 ± 1.97 ppm; Elution in saline (ppm) EDTA ([7]; day 5): 25.02 ± 0.96 ppm; Elution in saline (ppm) Silver ([7]; day 5): 37.54 ± 0.61 ppm; Elution in saline (ppm) Zinc ([7]; day 5): 27.28 ± 3.01 ppm; Elution in water (ppm) EDTA ([7]; day 5): 23.03 ± 3.46 ppm; Elution in water (ppm) Silver ([7]; day 5): 30.64 ± 5.25 ppm; Elution in water (ppm) Zinc ([7]; day 5): 23.54 ± 1.23 ppm; Elution in saline (ppm) EDTA ([8]; day 1): 17.31 ± 1.77 ppm; Elution in saline (ppm) Silver ([8]; day 1): 27.32 ± 3.84 ppm; Elution in saline (ppm) Zinc ([8]; day 1): 22.71 ± 1.75 ppm; Elution in water (ppm) EDTA ([8]; day 1): 13.23 ± 1.28 ppm; Elution in water (ppm) Silver ([8]; day 1): 23.32 ± 3.95 ppm; Elution in water (ppm) Zinc ([8]; day 1): 17.08 ± 3.09 ppm; Elution in saline (ppm) EDTA ([8]; day 2): 6.84 ± 2.67 ppm; Elution in saline (ppm) Silver ([8]; day 2): 8.36 ± 2.37 ppm; Elution in saline (ppm) Zinc ([8]; day 2): 7.67 ± 2.03 ppm; Elution in water (ppm) EDTA ([8]; day 2): 8.74 ± 2.01 ppm; Elution in water (ppm) Silver ([8]; day 2): 16.28 ± 3.75 ppm; Elution in water (ppm) Zinc ([8]; day 2): 12.78 ± 1.55 ppm; Elution in saline (ppm) EDTA ([8]; day 3): 1.75 ± 0.31 ppm; Elution in saline (ppm) Silver ([8]; day 3): 2.55 ± 0.94 ppm; Elution in saline (ppm) Zinc ([8]; day 3): 3.70 ± 0.20 ppm; Elution in water (ppm) EDTA ([8]; day 3): 1.55 ± 0.56 ppm; Elution in water (ppm) Silver ([8]; day 3): 3.82 ± 1.39 ppm; Elution in water (ppm) Zinc ([8]; day 3): 4.21 ± 1.19 ppm; Elution in saline (ppm) EDTA ([8]; day 4): 1.11 ± 0.61 ppm; Elution in saline (ppm) Silver ([8]; day 4): 1.46 ± 0.99 ppm; Elution in saline (ppm) Zinc ([8]; day 4): 3.48 ± 0.68 ppm; Elution in water (ppm) EDTA ([8]; day 4): 1.13 ± 0.57 ppm; Elution in water (ppm) Silver ([8]; day 4): 1.42 ± 0.40 ppm; Elution in water (ppm) Zinc ([8]; day 4): 3.37 ± 0.26 ppm; Elution in saline (ppm) EDTA ([8]; day 5): 0.54 ± 0.11 ppm; Elution in saline (ppm) Silver ([8]; day 5): 1.57 ± 1.43 ppm; Elution in saline (ppm) Zinc ([8]; day 5): 2.95 ± 1.46 ppm; Elution in water (ppm) EDTA ([8]; day 5): 0.79 ± 0.19 ppm; Elution in water (ppm) Silver ([8]; day 5): 0.59 ± 0.35 ppm; Elution in water (ppm) Zinc ([8]; day 5): 2.49 ± 0.88 ppm
